Earlier results in patent US12702690B2, “Cannabinoid compositions and dosage forms for intranasal or inhalational delivery” (RHODES TECHNOLOGIES, priority 2020, dated 2026).

Tests used:
[1] = background statement
[2] = following ingestion; Sharma et al. 2012

Structure (SMILES): CCCCCc1cc(O)c2c(c1)OC(C)(C)C1CCC(C)=CC21 (single isomer, unassigned; (-)) [Dronabinol, (−)-trans-Δ^9-tetrahydrocannabinol]
- solubility in water [1]: insoluble in water
- time at which systemic absorption peaks [2]: 1 to 2 h
